Reference: PubChem BioAssay (NCI)
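Interpolation was linear, between the two tested concentrations surrounding the appropriate level; five concentrations were tested over 48 hours in 96-well plates. At the GI50, growth is halved. Definition used: TGI = concentration required for complete inhibition of growth.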

Columns and labels:
Experiment in all cases: inhibition of tumour cell growth, NCI panel, 48 h
LOX IMVI melanoma = system: LOX IMVI melanoma
OVCAR-3 ovarian = system: OVCAR-3 ovarian
SK-MEL-5 melanoma = system: SK-MEL-5 melanoma
SNB-75 CNS = system: SNB-75 CNS
A498 renal = system: A498 renal
KM12 colon = system: KM12 colon
OVCAR-8 ovarian = system: OVCAR-8 ovarian
EKVX NSCLC = system: EKVX NSCLC
MOLT-4 leukemia = system: MOLT-4 leukemia
786-0 renal = system: 786-0 renal
T-47D breast = system: T-47D breast
CCRF-CEM leukemia = system: CCRF-CEM leukemia
HOP-62 NSCLC = system: HOP-62 NSCLC
UACC-62 melanoma = system: UACC-62 melanoma
MALME-3M melanoma = system: MALME-3M melanoma
SF-268 CNS = system: SF-268 CNS
CAKI-1 renal = system: CAKI-1 renal
HCC-2998 colon = system: HCC-2998 colon
SNB-19 CNS = system: SNB-19 CNS
PC-3 prostate = system: PC-3 prostate
RXF 393 renal = system: RXF 393 renal
COLO 205 colon = system: COLO 205 colon
DU-145 prostate = system: DU-145 prostate
OVCAR-4 ovarian = system: OVCAR-4 ovarian
MCF7 breast = system: MCF7 breast
SK-OV-3 ovarian = system: SK-OV-3 ovarian
K-562 leukemia = system: K-562 leukemia
NCI/ADR-RES ovarian = system: NCI/ADR-RES ovarian
NCI-H23 lung = system: NCI-H23 lung
NCI-H460 lung = system: NCI-H460 lung
SR leukemia = system: SR leukemia
HCT-116 colon = system: HCT-116 colon
SF-539 CNS = system: SF-539 CNS
SN12C renal = system: SN12C renal
MDA-MB-231 breast = system: MDA-MB-231 breast
SW-620 colon = system: SW-620 colon
HOP-92 NSCLC = system: HOP-92 NSCLC
SF-295 CNS = system: SF-295 CNS
U251 CNS = system: U251 CNS
HCT-15 colon = system: HCT-15 colon
IGROV1 ovarian = system: IGROV1 ovarian
SK-MEL-28 melanoma = system: SK-MEL-28 melanoma
A549 NSCLC = system: A549 NSCLC
OVCAR-5 ovarian = system: OVCAR-5 ovarian
UACC-257 melanoma = system: UACC-257 melanoma
ACHN renal = system: ACHN renal
HL-60(TB) leukemia = system: HL-60(TB) leukemia
HS 578T breast = system: HS 578T breast
M14 melanoma = system: M14 melanoma
MDA-MB-435 = system: MDA-MB-435
RPMI-8226 leukemia = system: RPMI-8226 leukemia

N#CC(C#N)=C/C=C/c1cccc([N+](=O)[O-])c1
GI50 (LOX IMVI melanoma): 0.913 µM
TGI (LOX IMVI melanoma): 2.37 µM
GI50 (OVCAR-3 ovarian): 0.533 µM
TGI (OVCAR-3 ovarian): 4.36 µM
GI50 (SK-MEL-5 melanoma): 1.35 µM
TGI (SK-MEL-5 melanoma): 2.66 µM
GI50 (SNB-75 CNS): 1.73 µM
TGI (SNB-75 CNS): 6.28 µM
GI50 (A498 renal): 1.99 µM
TGI (A498 renal): 5.21 µM
GI50 (KM12 colon): 1.28 µM
TGI (KM12 colon): 3.2 µM
GI50 (OVCAR-8 ovarian): 0.329 µM
TGI (OVCAR-8 ovarian): 1.36 µM
GI50 (EKVX NSCLC): 3.47 µM
TGI (EKVX NSCLC): 27.8 µM
GI50 (MOLT-4 leukemia): 0.391 µM
TGI (MOLT-4 leukemia): 13.6 µM
GI50 (786-0 renal): 1.51 µM
TGI (786-0 renal): 3.17 µM
GI50 (T-47D breast): 1.4 µM
TGI (T-47D breast): 6.81 µM
GI50 (CCRF-CEM leukemia): 0.556 µM
TGI (CCRF-CEM leukemia): 15.2 µM
GI50 (HOP-62 NSCLC): 1.81 µM
TGI (HOP-62 NSCLC): 6.39 µM
GI50 (UACC-62 melanoma): 1.3 µM
TGI (UACC-62 melanoma): 2.96 µM
GI50 (MALME-3M melanoma): 1.69 µM
TGI (MALME-3M melanoma): 8.87 µM
GI50 (SF-268 CNS): 1.54 µM
TGI (SF-268 CNS): 12.9 µM
GI50 (CAKI-1 renal): 0.457 µM
TGI (CAKI-1 renal): 4 µM
GI50 (HCC-2998 colon): 1.68 µM
TGI (HCC-2998 colon): 3.05 µM
GI50 (SNB-19 CNS): 3.35 µM
TGI (SNB-19 CNS): 16 µM
GI50 (PC-3 prostate): 2.09 µM
TGI (PC-3 prostate): 19.3 µM
GI50 (RXF 393 renal): 0.8 µM
TGI (RXF 393 renal): 2.06 µM
GI50 (COLO 205 colon): 1.26 µM
TGI (COLO 205 colon): 3.26 µM
GI50 (DU-145 prostate): 1.05 µM
TGI (DU-145 prostate): 12.8 µM
GI50 (OVCAR-4 ovarian): 3.09 µM
TGI (OVCAR-4 ovarian): 13.9 µM
GI50 (MCF7 breast): 0.482 µM
TGI (MCF7 breast): 9.55 µM
GI50 (SK-OV-3 ovarian): 2.62 µM
TGI (SK-OV-3 ovarian): 9.2 µM
GI50 (K-562 leukemia): 1.59 µM
TGI (K-562 leukemia): > 100 µM
GI50 (NCI/ADR-RES ovarian): 0.652 µM
TGI (NCI/ADR-RES ovarian): 5.04 µM
GI50 (NCI-H23 lung): 1.59 µM
TGI (NCI-H23 lung): 4.26 µM
GI50 (NCI-H460 lung): 1.21 µM
TGI (NCI-H460 lung): 2.68 µM
GI50 (SR leukemia): 0.576 µM
TGI (SR leukemia): 15.3 µM
GI50 (HCT-116 colon): 0.277 µM
TGI (HCT-116 colon): 1.1 µM
GI50 (SF-539 CNS): 2.55 µM
TGI (SF-539 CNS): 18.4 µM
GI50 (SN12C renal): 3.23 µM
TGI (SN12C renal): 30 µM
GI50 (MDA-MB-231 breast): 1.74 µM
TGI (MDA-MB-231 breast): 16 µM
GI50 (SW-620 colon): 0.914 µM
TGI (SW-620 colon): 2.57 µM
GI50 (HOP-92 NSCLC): 2.43 µM
TGI (HOP-92 NSCLC): 7.71 µM
GI50 (SF-295 CNS): 2.28 µM
TGI (SF-295 CNS): 10.3 µM
GI50 (U251 CNS): 1.08 µM
TGI (U251 CNS): 5.03 µM
GI50 (HCT-15 colon): 1.39 µM
TGI (HCT-15 colon): 3.98 µM
GI50 (IGROV1 ovarian): 0.71 µM
TGI (IGROV1 ovarian): 9.32 µM
GI50 (SK-MEL-28 melanoma): 1.38 µM
TGI (SK-MEL-28 melanoma): 3.23 µM
GI50 (A549 NSCLC): 2.29 µM
TGI (A549 NSCLC): 16.8 µM
GI50 (OVCAR-5 ovarian): 2.24 µM
TGI (OVCAR-5 ovarian): 7.96 µM
GI50 (UACC-257 melanoma): 1.33 µM
TGI (UACC-257 melanoma): 3.94 µM
GI50 (ACHN renal): 0.927 µM
TGI (ACHN renal): 2.22 µM
GI50 (HL-60(TB) leukemia): 0.345 µM
TGI (HL-60(TB) leukemia): 5.38 µM
GI50 (HS 578T breast): 0.325 µM
TGI (HS 578T breast): 2.75 µM
GI50 (M14 melanoma): 0.658 µM
TGI (M14 melanoma): 2.18 µM
GI50 (MDA-MB-435): 0.426 µM
TGI (MDA-MB-435): 2.53 µM
GI50 (RPMI-8226 leukemia): 1.59 µM
TGI (RPMI-8226 leukemia): 9.6 µM

CC(=O)OCCCCCn1cnc(C(N)=O)c1N
GI50 (SNB-75 CNS): 87.1 µM
